Assay results as given in ChEMBL document CHEMBL5154709, “Tetrazole derivatives bearing benzodiazepine moiety-synthesis and action mode against virulence of Candida albicans” (Eur J Med Chem, 2022).
Activity calls are given as the source filed them. The rule behind the calls is not given here.

Experiments:
Candida albicans [1] = test: Induction of macrophage-mediated Candida albicans SC5314 phagocytosis assessed as change in chitin at 16 ug/ml incubated for 18 hrs in presence of mouse RAW264.7 macrophages by PI/Acridine orange double staining based confocal laser scanning microscopic analysis; type: functional; details: dose 16.0 µg/ml
Candida albicans [2] = test: Antifungal activity against Candida albicans SC5314 assessed as inhibition of fungal growth at 0.25 ug/ml incubated for 48 hrs by M27-A3 based microdilution method relative to control; type: functional
Candida albicans [3] = test: Antifungal activity against Candida albicans SC5314 assessed as inhibition of fungal growth at 2 ug/ml incubated for 48 hrs by M27-A3 based microdilution method relative to control; type: functional
Candida albicans [4] = test: Effect on HSP90 expression in Candida albicans BWP17 assessed as decrease in relative expression of HSP90 gene level at 2 ug/ml incubated for 18 hrs by RT-PCR analysis; type: functional; details: dose 2.0 µg/ml
Candida albicans [5] = test: Antifungal against Candida albicans SC5314 biofilm co-cultured with African green monkey Vero cells assessed as accidental cell death in pseudohyphal cells by measuring orange fluorescence emission at 16 ug/ml incubated for 18 hrs by PI/acridine orange double staining based confocal laser scanning microscopic analysis; type: functional, organism-based; details: dose 16.0 µg/ml
[6] = Toxicity in Galleria mellonella larvae assessed as melanization of larvae at 16 ug/ml measured every 24 hrs upto 5 days relative to control; details: 120 h, at 16 µg/mL, time < 5 day
Candida albicans [7] = test: Downregulation of HSP90 gene expression in Candida albicans cnb1delta/CNB1 mutant at 2 ug/ml incubated for 6 hrs in presence of calcium chloride by RT-PCR analysis; type: functional; details: dose 2.0 µg/ml
Candida albicans [8] = test: Antifungal activity against Candida albicans SC5314 assessed as inhibition of fungal growth at 0.03125 ug/ml incubated for 18 hrs by M27-A3 based microdilution method relative to control; type: functional
Candida albicans [9] = test: Effect on HSP90 expression in Candida albicans cnb1delta/cnb1delta mutant assessed as decrease in relative expression of HSP90 gene level at 2 ug/ml incubated for 18 hrs by RT-PCR analysis; type: functional; details: dose 2.0 µg/ml
Candida albicans [10] = test: Effect on HSP90 expression in Candida albicans cnb1delta/CNB1 mutant assessed as fold increase in relative expression of HSP90 gene level at 2 ug/ml incubated for 18 hrs in presence of calcium chloride by RT-PCR analysis; type: functional; details: dose 2.0 µg/ml
Candida albicans [11] = test: Antifungal activity against Candida albicans assessed as inhibition of fungal growth measured after 48 hrs in presence of exogenous ergosterol by M27-A3 based broth microdilution; type: functional
Candida albicans [12] = test: Antifungal activity against Candida albicans SC5314 assessed as inhibition of fungal growth at 1 ug/ml incubated for 48 hrs by M27-A3 based microdilution method relative to control; type: functional
Candida albicans [13] = test: Antifungal activity against Candida albicans SC5314 assessed as inhibition of fungal growth at 0.03125 ug/ml incubated for 48 hrs by M27-A3 based microdilution method relative to control; type: functional
Candida albicans [14] = test: Antifungal activity against Candida albicans SC5314 assessed as inhibition of fungal growth at 0.0625 ug/ml incubated for 18 hrs by M27-A3 based microdilution method relative to control; type: functional
Candida albicans [15] = test: In vivo antifungal activity against Candida albicans SC5314 infected in Galleria mellonella larvae assessed as prevention of candidiasis at 16 ug/ml administered 1 hr post infection measured after 5 days by Hematoxylin and eosin staining; type: functional, organism-based; details: dose 16.0 µg/ml, time 5.0 day
Candida albicans [16] = test: Effect on HSP90 expression in Candida albicans BWP17 assessed as fold increase in relative expression of HSP90 gene level at 2 ug/ml incubated for 18 hrs in presence of calcium chloride by RT-PCR analysis; type: functional; details: dose 2.0 µg/ml
Candida albicans [17] = test: Downregulation of HSP90 gene expression in Candida albicans cnb1delta/cnb1delta mutant at 2 ug/ml incubated for 6 hrs in presence of calcium chloride by RT-PCR analysis; type: functional; details: dose 2.0 µg/ml
Candida albicans [18] = test: In vivo antifungal activity against Candida albicans SC5314 infected in Galleria mellonella larvae assessed as survival of larvae by measuring health score index at 16 ug/ml administered 1 hr post infection measured within 5 days by Hematoxylin and eosin staining; type: functional, organism-based; details: dose 16.0 µg/ml, time 5.0 day
Candida albicans [19] = test: Antifungal against Candida albicans cnb1delta/cnb1delta mutant biofilm assessed as increase cell membrane permeability at 16 ug/ml incubated for 18 hrs by Rho123 and Hoechst 33342 double staining based confocal laser scanning microscopic analysis; type: functional, organism-based; details: dose 16.0 µg/ml
Candida albicans [20] = test: Induction of cell cycle arrest in Candida albicans SC5314 assessed as accumulation of cells in G0/G1 phase at 16 ug/ml incubated fro 18 hrs by PI staining based flow cytometry method; type: functional, organism-based; details: dose 16.0 µg/ml

With `O=C1CN=C(c2ccccc2Br)c2cc(F)ccc2N1CCCn1nnc(-c2ccccc2Cl)n1` the Activity (Candida albicans [1]) was “Active”, the inhibition at 0.25 µg/mL (Candida albicans [2]) was 100% and the inhibition at 2 µg/mL (Candida albicans [3]) was 100%. The Activity (Candida albicans [4]) was “Active”, the Activity (Candida albicans [5]) was “Active” and the Activity [6] was 7%. For the same compound, the Activity (Candida albicans [7]) was “Active”, the inhibition at 0.03125 µg/mL (Candida albicans [8]) was 100% and the Activity (Candida albicans [9]) was “Active”. For the same compound, the fold change (FC) (Candida albicans [10]) was 4, the MIC (Candida albicans [11]) was 2.56 µg/mL and the inhibition at 1 µg/mL (Candida albicans [12]) was 99.2%. The inhibition at 0.03125 µg/mL (Candida albicans [13]) was 100%, the inhibition at 0.0625 µg/mL (Candida albicans [14]) was 99.2% and the Activity (Candida albicans [15]) was “Active”. The fold change (FC) (Candida albicans [16]) was 4, the Activity (Candida albicans [17]) was “Active” and the Activity (Candida albicans [18]) was “Active”. For the same compound, the Activity (Candida albicans [19]) was “Active” and the Activity (Candida albicans [20]) was “Active”.
